Data from patent US7781613B2, “Substituted N-aminomethylene sulfonamides, production and use thereof as medicaments” (Sanofi-Aventis, priority 2005, dated 2010).

Legend:
[1] = target: T1, hormone-sensitive lipase (HSL) (Rattus norvegicus, UniProt P15304); test: HSL enzyme assay (NAG assay) with partially purified HSL; format: biochemical; conditions: inhibition of HSL enzymatic activity; partially purified HSL from rat fat cells; NAG substrate; 30° C., 60 min
T1 construct: Isolated rat fat cells are obtained from epididymal adipose tissue from untreated male rats; from tissue; host or cells: rat (Wistar) epididymal adipose tissue, isolated fat cells
T1 sequence (P15304 1-768 isoform P15304-2): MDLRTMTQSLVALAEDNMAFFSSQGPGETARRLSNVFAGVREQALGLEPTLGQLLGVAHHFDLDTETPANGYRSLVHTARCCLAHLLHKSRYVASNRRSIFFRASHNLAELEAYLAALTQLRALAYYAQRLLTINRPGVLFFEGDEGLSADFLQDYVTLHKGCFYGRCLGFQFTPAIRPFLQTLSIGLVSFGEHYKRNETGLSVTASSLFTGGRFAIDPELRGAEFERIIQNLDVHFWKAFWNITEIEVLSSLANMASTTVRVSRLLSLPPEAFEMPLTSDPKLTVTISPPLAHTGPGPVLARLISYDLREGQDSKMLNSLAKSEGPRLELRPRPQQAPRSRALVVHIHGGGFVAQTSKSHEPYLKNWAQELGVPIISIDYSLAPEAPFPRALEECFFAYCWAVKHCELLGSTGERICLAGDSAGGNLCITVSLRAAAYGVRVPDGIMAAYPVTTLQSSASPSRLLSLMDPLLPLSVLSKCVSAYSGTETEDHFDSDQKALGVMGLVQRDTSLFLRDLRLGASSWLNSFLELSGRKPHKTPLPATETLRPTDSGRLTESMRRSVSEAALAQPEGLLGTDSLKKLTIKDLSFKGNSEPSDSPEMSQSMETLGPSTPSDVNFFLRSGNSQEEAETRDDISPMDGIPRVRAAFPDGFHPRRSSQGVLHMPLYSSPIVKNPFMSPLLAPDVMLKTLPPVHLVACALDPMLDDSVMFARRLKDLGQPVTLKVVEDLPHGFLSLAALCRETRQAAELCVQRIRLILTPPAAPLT
Experimental: The effect of the compounds of the invention of the formula I is tested in the following enzyme assay system: […]
Preparation of the Partially Purified HSL:
Isolated rat fat cells are obtained from epididymal adipose tissue from untreated male rats (Wistar, 220-250 g) by collagenase treatment in accordance with published methods (e.g. S, Nilsson et al., Anal. Biochem. 158, 1986, 399-407; G. Fredrikson et al., J. Biol. Chem. 256, 1981, 6311-6320; H. Tornquist et al., J. Biol. Chem. 251, 1976, 813-819). The fat cells from 10 rats are washed three times by flotation with 50 ml of homogenization buffer ([…] Tris/HCl, pH 7.4, 0.25 M sucrose, 1 mM EDTA, 1 mM DTT, 10 μg/ml leupeptin, 10 μg/ml antipain, 20 μg/ml pepstatin) each time and finally taken up in 10 ml of homogenization buffer. The fat cells are homogenized in a Teflon-in-glass homogenizer (Braun-Melsungen) by 10 strokes at 1500 rpm and 15° C. The homogenate is centrifuged (Sorvall SM24 tubes, 5000 rpm, 10 min, 4° C.). The subnatant between the layer of fat at the top and the pellet is removed and the centrifugation is repeated. The subnatant resulting therefrom is centrifuged again (Sorvall SM24 tubes, 20 000 rpm, 45 min, 4° C.). […] After incubation at 4° C. for 60 min (shaking at intervals of 15 min), the mixture is centrifuged (Sorvall SM24 tubes, 3000 rpm, 10 min, 4° C.). The supernatant is adjusted to pH 5.2 by adding glacial acetic acid and is incubated at 4° C. for 30 min. The precipitates are collected by centrifugation (Sorvall SS34, 12 000 rpm, 10 min, 4° C.) and suspended in 2.5 ml of 20 mM Tris/HCl, pH 7.0, 1 mM EDTA, 65 mM NaCl, 13% sucrose, 1 mM DTT, 10 μg/ml leupeptin/pepstatin/antipain. The suspension is dialyzed against 25 mM Tris/HCl, pH 7.4, 50% glycerol, 1 mM DTT, 10 μg/ml leupeptin, pepstatin, antipain at 4° C. overnight and then loaded onto a hydroxiapatite column (0.1 g per 1 ml of suspension, equilibrated with 10 mM potassium phosphate, pH 7.0, 30% glycerol, 1 mM DTT). The column is washed with four volumes of equilibration buffer at a flow rate of 20 to 30 ml/h. The HSL is eluted with one volume of equilibration buffer containing 0.5 M potassium phosphate and then dialyzed (see above) and concentrated 5- to 10-fold by ultrafiltration (Amicon Diaflo PM 10 Filter) at 4° C. The partially purified HSL can be stored at −70° C. for 4 to 6 weeks.
Preparation of NAG (NBD Monoacyl Glyceride) Substrate:
6 mg of phosphatidylcholine and 6 mg of phosphatidylinositol are each dissolved in 1 ml of chloroform. 10 mg of NAG are dissolved in 1 ml of chloroform. Two parts of phosphatidylinositol solution (e.g. 83.5 μl) and one part of phosphatidylcholine solution (e.g. 41.5 μl) and 100 μl of NAG solution are pipetted together into plastic scintillation vessels (final concentration in the assay: 0.0375 mg of phospholipid/ml; 0.05 mg/NAG/ml). The chloroform (225 μl total volume) is completely removed by passing a stream of N2 over it. The dried substrate can be stored at 4° C. for up to 3 days. To prepare the phospholipid vesicles/micelles with intercalated NAG (on the day of the assay), the dried substrate is taken up in 20 ml of assay buffer (25 mM Tris/HCl, pH 7.4; 150 mM NaCl) and two ultrasound treatments carried out with an ultrasonic probe (Branson Sonifier Type II, standard microtip): 1st treatment setting 2, 2×1 min, in between 1 min on ice each time; 2nd treatment setting 4, 2×1 min, in between 1 min on ice each time. During this procedure, the color of the substrate solution changes from yellow (extinction maximum 481 nm) to red (extinction maximum 550 nm) owing to intercalation of NAG between the phospholipid molecules in the vesicles/micelles. Before use as substrate (within the next 2 h), the solution is incubated on ice for 15 min.
The assay is carried out in 1.5 ml Eppendorf vessels or 96-well plates at 30° C. for 60 min. […]

melting point | IC50 [1] | SMILES
89 °C | – | COc1ccc(S(=O)(=O)N=CN(C)C)cc1CN1CC(C)CC(C)C1 (stereo not shown) [Example 8, N-Dimethylaminomethylene-4-methoxy-3-[(3,5-dimethylpiperidino)methyl]benzenesulfonamide]
180 °C | – | CC1CC(NC(=O)c2ccc(Cl)c(S(=O)(=O)N=CN(C)C)c2)CC(C)(C)C1 (stereo not shown) [Example 10, 4-Chloro-3-(dimethylaminomethylenesulfamoyl)-N-(3,3,5-trimethylcyclohexyl)benzamide]
192 °C | – | CN(C)C=NS(=O)(=O)c1cc(C(=O)NC2CC(C)(C)NC(C)(C)C2)ccc1Cl [Example 11, 4-Chloro-3-(dimethylaminomethylenesulfamoyl)-N-(2,2,6,6-tetramethylpiperidin-4-yl)-benzamide]
216 °C | – | Cc1cc(C)cc(NC(=O)c2ccc(Cl)c(S(=O)(=O)N=CN(C)C)c2)c1 [Example 12, 4-Chloro-3-(dimethylaminomethylenesulfamoyl)-N-(3,5-dimethylphenyl)benzamide]
167 °C | – | CN(C)C=NS(=O)(=O)c1cc(C(=O)NCc2ccccc2Cl)ccc1Cl [Example 16, 4-Chloro-3-(dimethylaminomethylenesulfamoyl)-N-(2-chlorophenylmethyl)benzamide]
137 °C | 400 nM | Cc1cc(C)cc(OCc2ccc(Cl)c(S(=O)(=O)N=CN(C)C)c2)c1 [Example 19, 6-Chloro-N-dimethylaminomethylene-3-[(3,5-dimethylphenoxy)methyl]benzenesulfonamide]
– | 500 nM | CC1CC(N(Cc2ccc(Cl)c(S(=O)(=O)N=CN(C)C)c2)S(C)(=O)=O)CC(C)(C)C1 (stereo not shown) [Example 21, 6-Chloro-N-dimethylaminomethylene-3-[(N-(3,3,5-trimethylcyclohexyl)-N-methylsulfonylamino)methyl]benzenesulfonamide]
– | 150 nM | CC1CC(NS(=O)(=O)c2ccc(Cl)c(S(=O)(=O)N=CN(C)C)c2)CC(C)(C)C1 (stereo not shown) [Example 23, 6-Chloro-N-dimethylaminomethylene-3-(3,3,5-trimethylcyclohexylaminosulfonyl]benzenesulfonamide]
123 °C | – | CN(C)C=NS(=O)(=O)c1cc(S(=O)(=O)N2CCCC(C)(C)C2)ccc1Cl [Example 24, 6-Chloro-N-dimethylaminomethylene-3-(3,3-dimethylpiperidinosulfonyl]-benzenesulfonamide]
> 165 °C (dec.) | – | CC1CC(NS(=O)(=O)c2cc(S(=O)(=O)N=CN(C)C)c(C(F)(F)F)cc2N)CC(C)(C)C1 (stereo not shown) [Example 26, 2-Amino-4-trifluoromethyl-5-dimethylaminomethylenesulfamoyl-N-(3,3,5-trimethyl-cyclohexyl)benzenesulfonamide]
– | 30 nM | CCCCN(CCCC)S(=O)(=O)c1cc(S(=O)(=O)N=CN(C)C)c(Cl)cc1N [Example 28, 2-Amino-4-chloro-5-dimethylaminomethylenesulfamoyl-N-dibutylbenzenesulfonamide]
126 °C | 700 nM | CC(C)CN(CC(C)C)S(=O)(=O)c1cc(S(=O)(=O)N=CN(C)C)c(Cl)cc1N [Example 29, 2-Amino-4-chloro-5-dimethylaminomethylenesulfamoyl-N-diisobutylbenzenesulfonamide]
100 °C | 1 nM | CC1CC(NS(=O)(=O)c2cc(S(=O)(=O)N=CN(C)C)c(Cl)cc2N)CC(C)(C)C1 (stereo not shown) [Example 32]
90 °C | 200 nM | C=CCN(C1CCCCC1)S(=O)(=O)c1cc(S(=O)(=O)N=CN(C)C)c(Cl)cc1N [Example 33, 2-Amino-4-chloro-5-dimethylaminomethylenesulfamoyl-N-cyclohexyl-N-allyl-benzenesulfonamide]
122 °C (dec.) | – | CC(C)N(C1CCCCC1)S(=O)(=O)c1cc(S(=O)(=O)N=CN(C)C)c(Cl)cc1N [Example 34, 2-Amino-4-chloro-5-dimethylaminomethylenesulfamoyl-N-cyclohexyl-N-isopropyl-benzenesulfonamide]
110 °C | – | CCCCCCCCNS(=O)(=O)c1cc(S(=O)(=O)N=CN(C)C)c(Cl)cc1N [Example 38, 2-Amino-4-chloro-5-dimethylaminomethylenesulfamoyl-N-octylbenzenesulfonamide]
> 185 °C (dec.) | 700 nM | CN(C)C=NS(=O)(=O)c1cc(S(=O)(=O)NC2CCCCC2)c(N)cc1C(F)(F)F [Example 48, 2-Amino-4-trifluoromethyl-5-dimethylaminomethylenesulfamoyl-N-cyclohexyl-benzenesulfonamide]
